Assay results reported in US4711886A, “β-lactam derivatives as anti-inflammatory and antidegenerative agents” (Merck & Co., Inc., priority 1984, dated 1987).
Read-outs that look alike come from different tables or passages of the source.

Target: T1, Human Polymorphonuclear Leukocyte Elastase (Homo sapiens, UniProt P08246)
T1 construct: Crude extract of human polymorphonuclear leukocytes (PMN) containing elastase activity; endogenous in cells; host or cells: human polymorphonuclear leukocytes (crude extract)
T1 sequence (P08246 30-247 limits assumed): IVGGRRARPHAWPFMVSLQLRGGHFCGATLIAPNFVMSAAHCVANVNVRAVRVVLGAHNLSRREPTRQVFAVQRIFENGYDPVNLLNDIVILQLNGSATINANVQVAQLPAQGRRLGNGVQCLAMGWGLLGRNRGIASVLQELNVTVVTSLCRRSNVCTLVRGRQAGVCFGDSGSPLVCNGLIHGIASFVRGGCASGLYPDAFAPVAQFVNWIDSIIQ
Assay: Inhibition of human polymorphonuclear leukocyte elastase via hydrolysis of N-t-Boc-alanyl-alanyl-prolyl-alanine-p-nitroanilide
Assay type: biochemical
Conditions: 50% inhibition of enzyme activity 2 minutes after zero time, crude PMN extract, Boc-AAPAN substrate, pH 7.5
Protocol: Enzyme Assays for the Inhibition of Human Polymorphonuclear Leukocyte Elastase Via Hydrolysis of N-t-Boc-alanyl-alanyl-prolylalanine-p-nitroanilide
0.05M TES (N-tris[hydroxymethyl]methyl-2-amino-ethanesulfonic acid) buffer, pH 7.5.
0.2 mM N-t-Boc-alanyl-alanyl-prolyl-alanine-p-nitroanilide (Boc-AAPAN).
To prepare substrate, the solid (m.w. 550) was first dissolved in 10.0 ml DMSO. Buffer at pH 7.5 was then added to a final volume of 100 ml.
Crude extract of human polymorphonuclear leukocytes (PMN) containing elastase activity.
Inhibitors (β-lactam derivatives) to be tested dissolved in DMSO just before use.
To 1.0 ml of 0.2 mM Boc-AAPAN in a cuvette, 0.01-0.1 ml of DMSO with or without inhibitor was added. After mixing, a measurement was taken at 410 mμ to detect any spontaneous hydrolysis due to presence of test compound. 0.05 Milliliters of PMN extract was then added and the ΔOD/min at 410 mμ was measured and recorded. Beckman model 35 spectrophotometer was used.
The elastase activity in the crude PMN extract may vary from one preparation to another. A control of each new batch is run, and the volume added in the assay procedure is adjusted according to activity.

[1] = Table III, penems, read-out: IC50 (converted)

Work on CCSC1=C(C(=O)OCc2ccc([N+](=O)[O-])cc2)N2C(=O)C(C(C)O)C2S1 (stereo not shown) yielded an IC50 [1] of 4.87 µM.

With CC1=C(C(=O)OCc2ccccc2)N2C(=O)C[C@H]2S1 [R1 = H, n = 0, M = CH3, B = OCH2 C6 H5, benzyl 2-methylpenem-3-carboxylate] the IC50 [1] was 14.5 µM.

In the case of O=C(O)[C@H]1/C(=C/CO)O[C@@H]2CC(=O)N21 [clavulanic acid, reference compound], the IC50 (Table IV, clavulanic acid series) was “inactive”.

Work on CCSC1=C(C(=O)OCc2ccc([N+](=O)[O-])cc2)N2C(=O)C(C(C)OC(=O)OCc3ccccc3)C2S1 (stereo not shown) yielded an IC50 [1] of 0.367 µM.

In the case of COC1C(=O)N2C(C(=O)OCc3ccccc3)=C(COC(C)=O)SC12 (stereo not shown), the IC50 [1] was 11 µM.

With O=C(OCc1ccccc1)C1C(=CCO)OC2CC(=O)N21 (stereo not shown) [B1 = CH2 C6 H5] the IC50 (Table IV, clavulanic acid series, read-out: IC50 (converted)) was 10.4 µM.

CCOC1=C(C(=O)OCc2ccccc2)N2C(=O)CC2S1 (stereo not shown) gave an IC50 [1] of 6.55 µM.
